Experimental data as given in PMC7747971 (Plant Communications, 2020).

What was measured:
[1] = molecular target: AtTPS29 (Arabidopsis thaliana, UniProt Q9C6W6); type: cell-based
[2] = molecular target: T1, AtTPS22 (Arabidopsis thaliana, UniProt Q9LQ27); type: cell-based
T1 sequence (Q9LQ27 57-603): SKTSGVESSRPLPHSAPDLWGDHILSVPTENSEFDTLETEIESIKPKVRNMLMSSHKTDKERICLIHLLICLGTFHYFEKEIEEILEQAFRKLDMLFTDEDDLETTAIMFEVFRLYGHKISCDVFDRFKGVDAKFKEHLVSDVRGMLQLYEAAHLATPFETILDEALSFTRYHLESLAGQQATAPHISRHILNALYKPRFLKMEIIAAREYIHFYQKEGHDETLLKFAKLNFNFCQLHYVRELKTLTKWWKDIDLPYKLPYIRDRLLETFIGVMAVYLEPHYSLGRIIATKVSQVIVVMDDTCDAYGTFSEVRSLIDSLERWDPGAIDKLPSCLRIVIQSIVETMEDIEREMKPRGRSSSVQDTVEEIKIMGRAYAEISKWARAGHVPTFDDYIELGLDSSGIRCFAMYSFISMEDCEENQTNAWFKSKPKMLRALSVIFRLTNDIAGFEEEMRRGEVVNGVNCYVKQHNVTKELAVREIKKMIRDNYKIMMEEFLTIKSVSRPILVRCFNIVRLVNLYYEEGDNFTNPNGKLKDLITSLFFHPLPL

[3] = molecular target: T2, AtTPS06 (Arabidopsis thaliana, UniProt Q84UU9); type: cell-based
T2 sequence (Q84UU9 53-611): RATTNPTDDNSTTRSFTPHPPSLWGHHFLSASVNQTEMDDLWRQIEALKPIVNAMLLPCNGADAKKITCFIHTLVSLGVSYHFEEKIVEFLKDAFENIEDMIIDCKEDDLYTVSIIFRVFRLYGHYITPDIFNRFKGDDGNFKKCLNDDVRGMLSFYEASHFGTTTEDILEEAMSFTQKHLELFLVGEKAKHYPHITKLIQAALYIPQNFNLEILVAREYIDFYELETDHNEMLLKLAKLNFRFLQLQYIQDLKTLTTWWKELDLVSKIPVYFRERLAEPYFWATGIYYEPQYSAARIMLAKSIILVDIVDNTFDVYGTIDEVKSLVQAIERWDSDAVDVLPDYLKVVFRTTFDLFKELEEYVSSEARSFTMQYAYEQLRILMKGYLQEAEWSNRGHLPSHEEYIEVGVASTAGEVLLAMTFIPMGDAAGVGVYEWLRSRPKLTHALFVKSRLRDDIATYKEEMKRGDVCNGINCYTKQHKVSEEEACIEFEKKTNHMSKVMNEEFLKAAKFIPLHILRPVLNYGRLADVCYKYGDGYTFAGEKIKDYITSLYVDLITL

[4] = molecular target: AtTPS19 (Arabidopsis thaliana, UniProt Q9LUE0); type: cell-based
Chain of AtTPS19 (Q9LUE0 49-602): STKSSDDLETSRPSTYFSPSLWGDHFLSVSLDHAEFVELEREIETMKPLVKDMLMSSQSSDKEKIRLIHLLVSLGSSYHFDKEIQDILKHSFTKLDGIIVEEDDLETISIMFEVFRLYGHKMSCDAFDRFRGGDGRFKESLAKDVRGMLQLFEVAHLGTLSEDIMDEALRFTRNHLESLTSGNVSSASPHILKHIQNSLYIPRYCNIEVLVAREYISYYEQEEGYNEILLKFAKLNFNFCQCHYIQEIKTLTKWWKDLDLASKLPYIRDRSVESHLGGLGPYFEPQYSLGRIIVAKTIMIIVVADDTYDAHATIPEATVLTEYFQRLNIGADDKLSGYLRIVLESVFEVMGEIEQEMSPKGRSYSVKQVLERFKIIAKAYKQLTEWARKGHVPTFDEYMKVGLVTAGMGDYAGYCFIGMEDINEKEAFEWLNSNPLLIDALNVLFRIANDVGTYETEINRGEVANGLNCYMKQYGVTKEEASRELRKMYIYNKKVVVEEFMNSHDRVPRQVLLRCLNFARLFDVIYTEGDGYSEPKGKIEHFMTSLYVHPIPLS

[5] = molecular target: AtTPS18 (Arabidopsis thaliana, UniProt Q9LUE2); experiment: X-ray crystal structure; type: binding; settings: AtTPS18-PP complex
Chain of AtTPS18 (Q9LUE2 52-605): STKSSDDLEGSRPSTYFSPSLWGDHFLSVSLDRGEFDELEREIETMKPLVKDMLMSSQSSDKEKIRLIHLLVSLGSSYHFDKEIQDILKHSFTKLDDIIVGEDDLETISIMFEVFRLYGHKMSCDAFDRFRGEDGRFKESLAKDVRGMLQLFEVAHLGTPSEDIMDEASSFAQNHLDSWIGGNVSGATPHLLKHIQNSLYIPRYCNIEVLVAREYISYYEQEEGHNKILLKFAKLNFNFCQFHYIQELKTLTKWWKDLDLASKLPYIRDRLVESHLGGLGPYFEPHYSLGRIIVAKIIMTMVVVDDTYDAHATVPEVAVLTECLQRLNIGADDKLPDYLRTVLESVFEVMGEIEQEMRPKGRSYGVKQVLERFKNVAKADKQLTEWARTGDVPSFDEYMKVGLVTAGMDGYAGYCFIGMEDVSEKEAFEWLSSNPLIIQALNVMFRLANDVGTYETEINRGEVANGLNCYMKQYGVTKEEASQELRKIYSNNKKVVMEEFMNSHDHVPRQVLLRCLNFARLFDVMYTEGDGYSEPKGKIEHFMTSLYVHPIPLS

Chain of AtTPS29 (Q9C6W6 51-607): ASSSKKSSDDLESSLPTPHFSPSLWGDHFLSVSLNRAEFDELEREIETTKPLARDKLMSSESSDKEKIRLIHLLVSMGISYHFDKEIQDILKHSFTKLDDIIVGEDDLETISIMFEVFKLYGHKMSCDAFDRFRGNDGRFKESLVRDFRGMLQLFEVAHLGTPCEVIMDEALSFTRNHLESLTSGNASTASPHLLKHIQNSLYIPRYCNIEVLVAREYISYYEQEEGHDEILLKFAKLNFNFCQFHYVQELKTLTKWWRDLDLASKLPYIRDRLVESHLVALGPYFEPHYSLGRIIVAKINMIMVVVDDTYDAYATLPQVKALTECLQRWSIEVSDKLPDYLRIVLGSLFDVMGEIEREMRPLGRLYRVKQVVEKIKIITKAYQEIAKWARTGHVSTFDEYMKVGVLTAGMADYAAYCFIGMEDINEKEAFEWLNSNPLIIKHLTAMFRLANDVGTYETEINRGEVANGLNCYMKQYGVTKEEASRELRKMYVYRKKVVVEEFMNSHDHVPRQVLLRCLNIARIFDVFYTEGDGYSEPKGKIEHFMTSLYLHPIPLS

| Structure (SMILES) | GC-MS of products in E. coli [1] | GC-MS of products in E. coli [2] | GC-MS of products in E. coli [3] | GC-MS of products in E. coli [4] | X-ray crystal structure [5] |
| --- | --- | --- | --- | --- | --- |
| CC(C)=CCC/C(C)=C/CC/C(C)=C/CC/C(C)=C/CC/C(C)=C/COP(=O)(O)OP(=O)(O)O [GFPP] | sesterterpenes ... were detected in transgenic E. coli strains harboring AtTPS06, AtTPS22, or AtTPS29 | sesterterpenes ... were detected in transgenic E. coli strains harboring AtTPS06, AtTPS22, or AtTPS29 | AtTPS06, a multi-product enzyme, produces more than ten different sesterterpenes from GFPP | C8 (the main product of AtTPS19) |  |
| O=P(O)(O)OP(=O)(O)O [PP] |  |  |  |  | AtTPS18-PP (PDB code 7BZB) |
